# Assay results as given in ChEMBL document CHEMBL2413036, “Isoswinholide B and swinholide K, potently cytotoxic dimeric macrolides from Theonella swinhoei” (Bioorg Med Chem, 2013).
# Columns and labels:
# [1] = test system: HepG2; test: Antiproliferative activity against human HepG2 cells assessed as cell growth inhibition at 100 nM after 48 hrs by MTT assay relative to swinholide-A; type: functional
# [2] = test system: HepG2; test: Antiproliferative activity against human HepG2 cells after 48 hrs by MTT assay; type: functional, cell-based; details: HepG2, 48 h
Structure (SMILES),IC50 [2],Efficacy [1]
CO[C@H]1C[C@H](CC[C@H](C)[C@H](O)[C@H](C)[C@H]2OC(=O)/C=C/C(C)=C/C[C@H](O)C[C@@H]3CCC[C@H](C[C@H](OC)[C@@H](C)[C@@H](O)C[C@@H](O)[C@H](C)[C@H](O)[C@@H](C)[C@H]([C@@H](C)CC[C@H]4C[C@H](OC)C[C@H](C)O4)OC(=O)/C=C/C(C)=C/C[C@H](O)C[C@@H]4C=CC[C@H](C[C@H](OC)[C@@H](C)[C@@H](O)C[C@@H](O)[C@@H]2C)O4)O3)O[C@@H](C)C1 [ISOSWINHOLIDE A],35 nM,16.28%
CO[C@H]1C[C@H](CC[C@H](C)[C@H](O)[C@H](C)[C@@H](O)[C@@H](C)[C@H]2C[C@H](O)[C@H](C)[C@@H](OC)C[C@@H]3CC=C[C@@H](C[C@@H](O)C/C=C(C)/C=C/C(=O)O[C@H]([C@@H](C)[C@@H](O)[C@@H](C)CC[C@H]4C[C@H](OC)C[C@H](C)O4)[C@@H](C)[C@H](O)C[C@H](O)[C@H](C)[C@@H](OC)C[C@@H]4CC=C[C@@H](C[C@@H](O)C/C=C(C)/C=C/C(=O)O2)O4)O3)O[C@@H](C)C1,1500 nM,7.52%
CO[C@H]1C[C@H](CC[C@H](C)[C@H](O)[C@H](C)[C@H]2OC(=O)/C=C/C(C)=C/C[C@H](O)C[C@@H]3C=CC[C@@H](C[C@H](OC)[C@@H](C)[C@@H](O)C[C@@H](O)[C@H](C)[C@@H]([C@@H](C)[C@@H](O)[C@@H](C)CC[C@H]4C[C@H](OC)C[C@H](C)O4)OC(=O)/C=C/C(C)=C/C[C@H](O)C[C@@H]4C=CC[C@@H](C[C@H](OC)[C@@H](C)[C@@H](O)C[C@@H](O)[C@@H]2C)O4)O3)O[C@@H](C)C1 [Swinholide A],20 nM,
CO[C@H]1C[C@H](CC[C@H](C)[C@H](O)[C@H](C)[C@H]2OC(=O)/C=C/C(C)=C/C[C@H](O)C[C@@H]3C=CC[C@@H](C[C@H](OC)[C@@H](C)[C@@H](O)C[C@@H](O)[C@H](C)[C@@H]([C@@H](C)[C@@H](O)[C@@H](C)CC[C@H]4C[C@H](OC)C[C@H](C)O4)OC(=O)/C=C/C(C)=C/C[C@H](O)C[C@@H]4C=CC[C@@H](C[C@H](O)[C@@H](C)[C@@H](O)C[C@@H](O)[C@@H]2C)O4)O3)O[C@@H](C)C1,30 nM,45.35%

# Further lines, with some results ahead:
IC50 [2],Structure (SMILES),Efficacy [1]
15 nM,C=C1/C=C/C(=O)O[C@H]([C@@H](C)[C@@H](O)[C@@H](C)CC[C@H]2C[C@H](OC)C[C@H](C)O2)[C@@H](C)[C@H](O)C[C@H](O)[C@H](C)[C@@H](OC)C[C@@H]2CC=C[C@@H](C[C@@H](O)C/C=C(C)/C=C/C(=O)O[C@H]([C@@H](C)[C@@H](O)[C@@H](C)CC[C@H]3C[C@H](OC)C[C@H](C)O3)[C@@H](C)[C@H](O)C[C@H](O)[C@H](C)[C@@H](OC)C[C@@H]3CC=C[C@@H](C[C@@H](O)C[C@H]1O)O3)O2,42.67%
25 nM,CO[C@@H]1C[C@@H](O)C[C@@H](O)[C@H](C)[C@@H]([C@@H](C)[C@@H](O)[C@@H](C)CC[C@H]2C[C@H](OC)C[C@H](C)O2)OC(=O)/C=C/C(C)=C/C[C@H](O)C[C@@H]2C=CC[C@H](C[C@H](OC)[C@@H](C)[C@@H](O)C[C@@H](O)[C@H](C)[C@@H]([C@@H](C)[C@@H](O)[C@@H](C)CC[C@H]3C[C@H](OC)C[C@H](C)O3)OC(=O)/C=C/C(C)=C/C[C@H](O)C[C@@H]3CCC[C@H](C1)O3)O2 [SWINHOLIDE B],89.38%
